US6750224B1, “Antibacterial optically pure benzoquinolizine carboxylic acids, processes, compositions and methods of treatment” (priority 1999, dated 2004)
≈ marks a conversion by molar mass, not a printed value.

Experiments:
[1] = Phlebitis on repeated i.v. administration in rats; assay type: in vivo; conditions: doses double those of the sodium salt
Source text: This feature would make S-(−)-9-fluoro-6,7-dihydro-8-(4-hydroxypiperidin-1-yl)-5-methyl-1-oxo-1H,5H- benzo[i,j]quinolizine-2-carboxylic acid arginine salt 0.25 H2O and S-(−)-9-fluoro-6,7-dihydro-8-[4-(hydroxy)-1-piperidin-1-yl)-5-methyl-1-oxo-1H,5H-benzo[i,j]quinolizine-2-carboxylic acid arginine salt 0.75 H2O suitable for long term i.v. administration which is commonly undertaken for critically ill patients or patients in intensive care unit.

[2] = tested on: S.aureus strain bearing Nor A efflux pump; assay type: cell-based; conditions: Nor A efflux pump strain vs strain devoid of efflux pump
Protocol: Using this set of MIC values, % loss in potency due to efflux was calculated for each of the fluoroquinolone in Table 5

[3] = tested on: E. faecalis; experiment: Effect of pH on potency of fluoroquinolones (MIC at pH 5.5 and 7.0); assay type: cell-based; conditions: MIC pH 7 vs pH 5.5
Source text: (§1) The test method was in accordance with the standard NCCLS protocol employing test media adjusted at pH 5.5 and 7.0.

[4] = tested on: P. rettgeri N 1764; experiment: as above; assay type: cell-based; conditions: MIC pH 7 vs pH 5.5
Source text: as §1

[5] = tested on: S. aureus 25923; experiment: as above; assay type: cell-based; conditions: MIC pH 7 vs pH 5.5
Source text: as §1

[6] = tested on: Serratia marcescens 2702; experiment: as above; assay type: cell-based; conditions: MIC pH 7 vs pH 5.5
Source text: as §1

[7] = tested on: P. vulgaris 66; experiment: as above; assay type: cell-based; conditions: MIC pH 7 vs pH 5.5
Source text: as §1

[8] = tested on: S. aureus 1199-B; experiment: as above; assay type: cell-based; conditions: MIC pH 7 vs pH 5.5
Source text: as §1

[9] = tested on: Ps. Aeruginosa; experiment: as above; assay type: cell-based; conditions: MIC pH 7 vs pH 5.5
Source text: as §1

[10] = tested on: Klebsiella 24037; experiment: as above; assay type: cell-based; conditions: MIC pH 7 vs pH 5.5
Source text: as §1

[11] = tested on: E. coli 2015; experiment: as above; assay type: cell-based; conditions: MIC pH 7 vs pH 5.5
Source text: as §1

[12] = tested on: Acinetobacter 3109; experiment: as above; assay type: cell-based; conditions: MIC pH 7 vs pH 5.5
Source text: as §1

[13] = tested on: E. coli 25922; experiment: as above; assay type: cell-based; conditions: MIC pH 7 vs pH 5.5
Source text: as §1

[14] = tested on: P. mirabilis 37; experiment: as above; assay type: cell-based; conditions: MIC pH 7 vs pH 5.5
Source text: as §1

[15] = tested on: MRSE STE-22; experiment: In-vitro antimicrobial activity test (MIC, NCCLS); assay type: cell-based, Staphylococcus epidermidis
Source text: (§2) The test method was in accordance with the standard NCCLS protocol.

[16] = tested on: MRSA STA-4; experiment: In-vitro antimicrobial activity test (MIC, NCCLS); assay type: cell-based, Staphylococcus aureus
Source text: as §2

[17] = tested on: Mupirocin-resistant Staph STA-34; experiment: In-vitro antimicrobial activity test (MIC, NCCLS); assay type: cell-based, Staphylococcus aureus
Source text: as §2

[18] = tested on: Haemophilus influenzae; experiment: In-vitro antimicrobial activity test (MIC, NCCLS); assay type: cell-based
Source text: as §2

[19] = tested on: Escherichia coli ATCC 25922; experiment: In-vitro antimicrobial activity test (MIC, NCCLS); assay type: cell-based
Source text: as §2

[20] = tested on: Staphylococcus aureus ATCC 25923; experiment: In-vitro antimicrobial activity test (MIC, NCCLS); assay type: cell-based
Source text: as §2

[21] = tested on: Serratia marcescens; experiment: In-vitro antimicrobial activity test (MIC, NCCLS); assay type: cell-based
Source text: as §2

[22] = tested on: Enterococcus faecalis ATCC 29212; experiment: In-vitro antimicrobial activity test (MIC, NCCLS); assay type: cell-based
Source text: as §2

[23] = tested on: Mycobacterium avium; experiment: In-vitro antimicrobial activity test (MIC, NCCLS); assay type: cell-based
Source text: as §2

[24] = tested on: Streptococcus pyogenes; experiment: In-vitro antimicrobial activity test (MIC, NCCLS); assay type: cell-based
Source text: as §2

[25] = tested on: Chryseobacterium meningosepticum; experiment: In-vitro antimicrobial activity test (MIC, NCCLS); assay type: cell-based
Source text: as §2

[26] = tested on: Viridans group Streptococci; experiment: In-vitro antimicrobial activity test (MIC, NCCLS); assay type: cell-based
Source text: as §2

[27] = tested on: Pseudomonas aeruginosa; experiment: In-vitro antimicrobial activity test (MIC, NCCLS); assay type: cell-based
Source text: as §2

[28] = tested on: Bacteroides fragilis; experiment: In-vitro antimicrobial activity test (MIC, NCCLS); assay type: cell-based
Source text: as §2

[29] = tested on: Mycobacterium tuberculosis ATCC 27294; experiment: In-vitro antimicrobial activity test (MIC, NCCLS); assay type: cell-based
Source text: as §2

[30] = tested on: Corynebacterium jeikeium; experiment: In-vitro antimicrobial activity test (MIC, NCCLS); assay type: cell-based
Source text: as §2

[31] = tested on: Streptococcus pneumoniae ATCC 6303; experiment: In-vitro antimicrobial activity test (MIC, NCCLS); assay type: cell-based
Source text: as §2

[32] = tested on: Propioni bacterium acnes; experiment: In-vitro antimicrobial activity test (MIC, NCCLS); assay type: cell-based
Source text: as §2

[33] = tested on: Mycobacterium intracellulare; experiment: In-vitro antimicrobial activity test (MIC, NCCLS); assay type: cell-based
Source text: as §2

[34] = tested on: Enterococcus faecium; experiment: In-vitro antimicrobial activity test (MIC, NCCLS); assay type: cell-based
Source text: as §2

[35] = Phototoxicity studies; conditions: in vivo

In the case of `C[C@H]1CCc2c(N3CCC(O)CC3)c(F)cc3c(=O)c(C(=O)O)cn1c23.N=C(N)NCCC[C@H](N)C(=O)O.O` [Example 7, S-(−)-9-fluoro-6,7-dihydro-8-(4-hydroxypiperidin-1-yl)-5-methyl-1-oxo-1H,5H-benzo[i,j]quinolizine-2-carboxylic acid, arginine salt 0.25 H2O], the phlebitis [1] is reported as “did not cause phlebitis”.
With `COc1c(N2CCNC(C)C2)c(F)cc2c(=O)c(C(=O)O)cn(C3CC3)c12` (stereo not drawn) [Gatifloxacin] the “% loss in potency for S. aureus bearing Efflux pump” value (shortened to “% loss in potency”) [2] was 75%.
For `CO/N=C1\CN(c2nc3c(cc2F)c(=O)c(C(=O)O)cn3C2CC2)CC1CN` (stereo not drawn) [Gemifloxacin], the “% loss in potency” value [2] was 75%.
With `C[C@H]1COc2c(N3CCN(C)CC3)c(F)cc3c(=O)c(C(=O)O)cn1c23` [Levofloxacin] the “% change in potency at pH 5.5, loss (−)/gain (+)” value (shortened to “% change … loss (−)/gain (+)”) [3] was −75%, the “% change … loss (−)/gain (+)” value [4] was −94% and the “% change … loss (−)/gain (+)” value [5] was −75%. The “% change … loss (−)/gain (+)” value [6] was −98%, the “% change … loss (−)/gain (+)” value [7] was −94% and the “% change … loss (−)/gain (+)” value [8] was −75%. The “% change … loss (−)/gain (+)” value [9] was −50%, the “% change … loss (−)/gain (+)” value [10] was −94% and the “% change … loss (−)/gain (+)” value [11] was −87.5%. The “% change … loss (−)/gain (+)” value [12] was −94%, the “% change … loss (−)/gain (+)” value [13] was −96% and the “% change … loss (−)/gain (+)” value [14] was −94%. For the same compound, the MIC [15] was > 12.5 µg/mL, the MIC [16] was > 12.5 µg/mL and the MIC [17] was 12.5 µg/mL (≈ 34.6 µM). The MIC [18] was 0.03 µg/mL (≈ 0.083 µM), the MIC [19] was 0.05 µg/mL (≈ 0.138 µM) and the MIC [20] was 0.2 µg/mL (≈ 0.553 µM). It also gave an MIC [21] of 0.1 µg/mL (≈ 0.277 µM), an MIC [22] of 0.8 µg/mL (≈ 2.21 µM) and an MIC [23] of 12.5 µg/mL (≈ 34.6 µM). It also gave an MIC [24] of 0.4 µg/mL (≈ 1.11 µM), an MIC [25] of 6.25 µg/mL (≈ 17.3 µM) and an MIC [26] of 1.56 µg/mL (≈ 4.32 µM). It also gave an MIC [27] of 3.12 µg/mL (≈ 8.63 µM), an MIC [28] of 6.25 µg/mL (≈ 17.3 µM) and an MIC [29] of 0.4 µg/mL (≈ 1.11 µM). The MIC [30] was 0.4 µg/mL (≈ 1.11 µM), the MIC [31] was 0.8 µg/mL (≈ 2.21 µM) and the MIC [32] was 1 µg/mL (≈ 2.77 µM). It also gave an MIC [33] of 0.8 µg/mL (≈ 2.21 µM) and an MIC [34] of 1.56 µg/mL (≈ 4.32 µM).
For `C/C(=C\C(=O)OCCCCCCCCC(=O)O)C[C@@H]1OC[C@H](C[C@@H]2O[C@H]2[C@@H](C)[C@H](C)O)[C@@H](O)[C@H]1O` [Mupirocin], the MIC [15] was 0.2 µg/mL (≈ 0.399 µM), the MIC [16] was 0.4 µg/mL (≈ 0.799 µM) and the MIC [17] was > 400 µg/mL. The MIC [20] was 0.4 µg/mL (≈ 0.799 µM), the MIC [22] was > 12.5 µg/mL and the MIC [24] was 0.025 µg/mL (≈ 0.0499 µM). For the same compound, the MIC [26] was 0.2 µg/mL (≈ 0.399 µM), the MIC [30] was > 12.5 µg/mL and the MIC [31] was 0.2 µg/mL (≈ 0.399 µM). The MIC [32] was > 1000 µg/mL and the MIC [34] was > 0.8 µg/mL.
With `CCn1cc(C(=O)O)c(=O)c2cc(F)c(N3CCNCC3)cc21` [Norfloxacin] the “% loss in potency” value [2] was 97%.
For `C[C@@H]1CN(c2c(F)c(N)c3c(=O)c(C(=O)O)cn(C4CC4)c3c2F)C[C@H](C)N1` [Sparfloxacin], the “phototoxic dosage, times lower than S-(−)-Nadifloxacin” value [35] was 25 times.
